Measured values from patent US6620423B2, “Use for pain management” (AstraZeneca AB, priority 1998, dated 2003).
Structures can show the parent of a compound that is named as a salt.

Assays:
[1] = tested on: patients with myofascial pain syndrome (MPS); details: bupivacaine 0.25%, lignocaine 1%, local injection, 107 patients; cited from earlier work
[2] = tested on: patients with orofacial muscle (myofascial) pain, masseter muscle tender points; assay: Frequency of pain episodes / freedom from muscular pain at follow-up; type: in vivo, human
Experimental: (§1) Ropivacaine hydrochloride 7.5 mg/ml solution for injection was used (Naropin®, Astra AB, Sweden). Ropivacaine was administered as a single dose intra-muscular tender point (TP) injection. Injection by means of one needle insertion per tender point was preceded by aspiration before infiltrating the study drug over the entire tender area. A standard disposable syringe with a 0.4 mm diameter needle was used. Injection rate was about 1 ml/30 sec. Injections were made at one occassion at a visit to the clinic. Follow-up data were obtained at a study end visit to the clinic 1 week after the injection. A case history information including the duration of the present orofacial muscle pain was collected. A clinical examination of the orofacial region including digital palpation of the temporomandibular joints and masticatory muscles. Ten patients (5 men and 5 women) whose age varied from 19 years to 69 years (mean 42.9 years of age) were included in this test. The duration of complaints ranged from 1 month up to 10 years (mean 26.5 months). All patients were subjected to unilateral injections of ropivacaine into tender points of the masseter muscle. Three patients received 1 ml, 5 patients received 2 ml, 1 patient received 3 ml and 1 patient received 4 ml of the study drug.

[3] = tested on: patients with orofacial muscle (myofascial) pain, masseter muscle tender points; assay: VAS pain at maximal mouth opening after intramuscular tender point injection; type: in vivo, human
Experimental: Ropivacaine hydrochloride 7.5 mg/ml solution for injection was used (Naropin®, Astra AB, Sweden). Ropivacaine was administered as a single dose intra-muscular tender point (TP) injection. Injection by means of one needle insertion per tender point was preceded by aspiration before infiltrating the study drug over the entire tender area. A standard disposable syringe with a 0.4 mm diameter needle was used. Injection rate was about 1 ml/30 sec. Injections were made at one occassion at a visit to the clinic. Follow-up data were obtained at a study end visit to the clinic 1 week after the injection. Ten patients (5 men and 5 women) whose age varied from 19 years to 69 years (mean 42.9 years of age) were included in this test. The duration of complaints ranged from 1 month up to 10 years (mean 26.5 months). All patients were subjected to unilateral injections of ropivacaine into tender points of the masseter muscle. Three patients received 1 ml, 5 patients received 2 ml, 1 patient received 3 ml and 1 patient received 4 ml of the study drug. (i) Pain on maximal mouth opening The patient rated their pain on a 100 mm visual analogue scale (VAS). On the VAS, 0 represents “no pain” and 100 represents “worst pain imaginable”. The primary efficacy variable was VAS pain score at maximal mouth opening. The patient was asked to open the mouth as much as possible and then they rated the experienced pain.

[4] = tested on: patients with orofacial muscle (myofascial) pain, masseter muscle tender points; assay: VAS pain at rest (jaw at rest) after intramuscular tender point injection; type: in vivo, human
Experimental: as §1, with “injection.” for “injection. A case history information including the duration of the present orofacial muscle pain was collected. A clinical examination of the orofacial region including digital palpation of the temporomandibular joints and masticatory muscles.”, “drug. (ii) Pain at rest The non-functional pain (jaw at rest) was also assessed by the patient on the VAS scale. This parameter was rated before the rating of pain on maximal mouth opening.” for “drug.”

Row | Structure (SMILES) | Effect on pain compared between bupivacaine, lignocaine and saline [1] | Patients who became free or almost free of their muscular pain ([2]; FIG. 1, 10 patients treated) | Patients with pain at one occasion during the week prior to follow-up ([2]; of 10 patients) | Patients with pain several times a week or every day at follow-up ([2]; of 10 patients) | Patients with not a single episode with pain during the week prior to follow-up ([2]; of 10 patients, at baseline 2 had pain every day, 8 several times per week) | Pain at maximal jaw opening, 100 mm VAS, Follow-up, Max ([3]; 10 patients, 7.5 mg/ml single i.m. injection, follow-up 1 week, baseline max 95) | Pain at maximal jaw opening, 100 mm VAS, Follow-up, Mean ([3]; 10 patients, 7.5 mg/ml single i.m. injection, follow-up 1 week, baseline mean 59.3, S.D. 32.34) | Pain at maximal jaw opening, 100 mm VAS, Follow-up, Min ([3]; 10 patients, 7.5 mg/ml single i.m. injection, follow-up 1 week, baseline min 8) | Pain at maximal jaw opening, 100 mm VAS, Follow-up, Median ([3]; 10 patients, 7.5 mg/ml single i.m. tender point injection (1-4 ml), follow-up 1 week, baseline median 59.5) | VAS rated pain at maximal mouth opening, change as a result of the treatment ([3]; baseline vs follow-up 1 week, result in words) | Pain at rest, 100 mm VAS, Follow-up, Max ([4]; 10 patients, 7.5 mg/ml single i.m. injection, follow-up 1 week, baseline max 89) | Pain at rest, 100 mm VAS, Follow-up, Mean ([4]; 10 patients, 7.5 mg/ml single i.m. injection, follow-up 1 week, baseline mean 33.3) | Pain at rest, 100 mm VAS, Follow-up, Median ([4]; 10 patients, 7.5 mg/ml single i.m. injection, follow-up 1 week, baseline median 19.5) | Pain at rest, 100 mm VAS, Follow-up, Min ([4]; 10 patients, 7.5 mg/ml single i.m. injection, follow-up 1 week, baseline min 3) | Pain at rest, change as the result of the treatment ([4]; baseline vs follow-up, result in words)
1 | CCCCN1CCCCC1C(=O)Nc1c(C)cccc1C (stereo not shown) [bupivacaine] | No significant difference |  |  |  |  |  |  |  |  |  |  |  |  |  | 
2 | CCN(CC)CC(=O)Nc1c(C)cccc1C [lignocaine] | No significant difference |  |  |  |  |  |  |  |  |  |  |  |  |  | 
3 | CCCN1CCCC[C@H]1C(=O)Nc1c(C)cccc1C [ropivacaine, (S)-(−)-i-propyl-2′,6′-pipecoloxylidide hydrochloride] |  | 6 out of the 10 | 1 patient | 3 patients | 6 patients | 75 mm | 27.3 mm | 0 mm | 6 mm | dramatic reduction | 16 mm | 3.7 mm | 3.5 mm | 0 mm | decreased significantly
